# In US20200239530A1, “COMPOUNDS AND METHODS OF MODULATING PROTEIN DEGRADATION” (Vividion Therapeutics, Inc., priority 2017, published 2020):
# What was measured:
# [1] = target: T1, HERC4 Probable E3 ubiquitin-protein ligase HERC4 (Homo sapiens, UniProt Q5GLZ8); test: Cysteine liganding, probe competition; assay type: binding
# T1 construct: Cells were resuspended in cold PBS on ice and sonicated with a probe sonicator to achieve lysis; endogenous in cells
# T1 sequence (Q5GLZ8 1-1057): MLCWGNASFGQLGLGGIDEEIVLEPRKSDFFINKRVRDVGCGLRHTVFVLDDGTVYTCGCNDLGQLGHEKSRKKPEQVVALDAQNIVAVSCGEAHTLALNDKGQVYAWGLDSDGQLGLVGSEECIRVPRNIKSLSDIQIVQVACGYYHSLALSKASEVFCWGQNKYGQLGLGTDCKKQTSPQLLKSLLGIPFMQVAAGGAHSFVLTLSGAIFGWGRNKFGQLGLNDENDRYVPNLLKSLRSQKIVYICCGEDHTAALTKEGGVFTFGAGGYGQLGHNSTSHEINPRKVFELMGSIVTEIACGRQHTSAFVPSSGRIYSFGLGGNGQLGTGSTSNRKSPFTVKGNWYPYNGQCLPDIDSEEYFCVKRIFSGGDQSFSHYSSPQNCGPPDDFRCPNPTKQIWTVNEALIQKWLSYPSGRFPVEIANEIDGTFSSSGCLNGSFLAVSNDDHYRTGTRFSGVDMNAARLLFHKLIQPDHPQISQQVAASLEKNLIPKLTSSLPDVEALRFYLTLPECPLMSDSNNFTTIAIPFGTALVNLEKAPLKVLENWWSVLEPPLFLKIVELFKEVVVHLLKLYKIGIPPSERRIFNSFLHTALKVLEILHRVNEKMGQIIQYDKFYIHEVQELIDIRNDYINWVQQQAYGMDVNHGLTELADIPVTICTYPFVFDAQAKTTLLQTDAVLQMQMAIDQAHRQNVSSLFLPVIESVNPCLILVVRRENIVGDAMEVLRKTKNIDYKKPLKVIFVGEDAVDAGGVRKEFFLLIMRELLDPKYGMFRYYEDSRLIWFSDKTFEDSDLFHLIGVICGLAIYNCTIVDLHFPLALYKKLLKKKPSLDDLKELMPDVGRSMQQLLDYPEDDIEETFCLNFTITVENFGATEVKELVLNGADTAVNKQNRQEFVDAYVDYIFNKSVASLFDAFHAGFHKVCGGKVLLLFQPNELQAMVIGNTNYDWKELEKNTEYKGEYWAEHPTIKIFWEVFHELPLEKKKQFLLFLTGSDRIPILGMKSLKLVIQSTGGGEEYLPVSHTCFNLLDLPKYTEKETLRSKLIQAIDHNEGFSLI
# Outline: (§1)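 Steps: sonicate cells in cold PBS; treat 5 mg/ml lysate with compound (25° C, 1 hr); add desthiobiotin iodoacetamide probe from a 10 mM stock (25° C, 1 hr); precipitate, reduce, alkylate, digest with trypsin; capture labelled peptides on streptavidin for analysis.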
# TAPBP Tapasin = target: T2, TAPBP Tapasin (Homo sapiens, UniProt O15533); test: Cysteine liganding, probe competition; assay type: binding
# T2 construct: Cells were resuspended in cold PBS on ice and sonicated with a probe sonicator to achieve lysis; endogenous in cells
# T2 sequence (O15533 21-448): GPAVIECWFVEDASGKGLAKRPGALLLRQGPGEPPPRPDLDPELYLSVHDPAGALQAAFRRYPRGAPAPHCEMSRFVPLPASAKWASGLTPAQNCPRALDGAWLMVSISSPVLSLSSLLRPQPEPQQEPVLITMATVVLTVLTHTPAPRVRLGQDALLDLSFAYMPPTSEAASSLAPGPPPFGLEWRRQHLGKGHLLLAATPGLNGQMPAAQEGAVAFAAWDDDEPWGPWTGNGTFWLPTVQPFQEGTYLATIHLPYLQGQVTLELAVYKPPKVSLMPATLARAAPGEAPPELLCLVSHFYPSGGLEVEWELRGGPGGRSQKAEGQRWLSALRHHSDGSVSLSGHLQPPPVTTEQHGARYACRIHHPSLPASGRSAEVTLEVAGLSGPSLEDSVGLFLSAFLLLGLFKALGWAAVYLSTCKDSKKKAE
# Outline: as §1
Compound,"Liganded ([1]; HERC4 Res# 60, uniprot Q5GLZ8)","Liganded (TAPBP Tapasin; TAPBP Res# 440, uniprot O15533)",100 Max ([1]; uniprot Q5GLZ8),100 ave ([1]; uniprot Q5GLZ8),500 ave ([1]; uniprot Q5GLZ8),"500 Max ([1]; uniprot Q5GLZ8, unit assumed) [%]",100 Max (TAPBP Tapasin; uniprot O15533),100 ave (TAPBP Tapasin; uniprot O15533),500 Max (TAPBP Tapasin; uniprot O15533),500 ave (TAPBP Tapasin; uniprot O15533)
COc1ccc2c(c1)CCCN2C(=O)CCl [KB02],YES,YES,–,–,–,–,–,–,–,–
O=C(CCl)Nc1cc(C(F)(F)F)cc(C(F)(F)F)c1 [KBO3],–,–,42.0,15.4,58.8,62.3,31.4264,28.54,68.7451,68.7451
